Data published in patent US5532227A, “Tetracyclines including non-antimicrobial chemically-modified tetracyclines inhibit excessive glycosylation of different types of collagen and other proteins during diabetes” (The Research Foundation of State University of New York, priority 1994, dated 1996).

What was measured:
skin collagen [1] = test: Glycosylation of diabetic rat skin collagen (Example V, Table IV); assay type: in vivo, Sprague-Dawley rat; conditions: 5 mg daily oral gavage, 21 days; for mM Fructosamine/mg protein (Mean ± SE): NDC 0.027, untreated diabetic 0.377; for Reduction of glycosylation in treated diabetics (%): vs untreated diabetic control
Protocol: (§1) All animals were weighed weekly.
The subcutaneous muscle layer was removed leaving essentially the dermis. The dermis (skin connective tissue) samples were minced, then homogenized in phosphate buffered saline (4° C.). Following centrifugation (at 9000 rpm, 4° C., 30 min.) of the homogenates, the supernatants were discarded. The pellets were repeatedly washed, then resuspended and extracted at 4° C. overnight in chloroform/methanol to remove lipids. The de-lipidized tissue samples were then washed in 100% methanol, then in 50% methanol. Following the methanol washes, the samples were washed with HEPES buffer (pH 7.4). The skin connective tissue samples (100 mg of each sample) were incubated at 37° C. (24 hours) with chromatographically-purified bacterial collagenase. After 24 hours the reaction mixture was centrifuged at 7000 rpm, room temperature for 30 minutes. Following centrifugation, the supernatants containing the digested collagen were collected. Aliquots of the supernatants were analyzed for glycosylated collagen using a modification of the Isolab Glyco-PROBE™ GSP assay kit. The assay is designed to measure glucose bound to protein which was then converted by Amadori rearrangement to fructosamine. For purposes of the present invention, the sample total protein was increased to compensate for low levels of glycosylated collagen compared to glycosylated serum proteins.

serum proteins [2] = test: Serum fructosamine (glycosylated serum protein), 14 weeks doxycycline (Example II, Table III); assay type: in vivo; conditions: 2 mg/rat/day oral
Protocol: Three groups of rats were established: a non-diabetic control group, an untreated streptozotocin-diabetic group and a streptozotocin-diabetic group treated orally with 2 mg doxycycline/rat/day over the 14-week time period. At the end of the 14 weeks, blood samples were collected from each rat arid the serum was measured for glycosylated protein using an assay which is based on the ability of glucose to non-enzymatically bind to proteins by a ketoamine crosslink to form fructosamine. During the assay, the glucose bound to the protein through a ketoamine chemical bond reduces a tetrazolium dye under alkaline conditions producing a color change which is measured spectrophotometrically. Armbruster, Clin. Chem., 33: 2153-2163 (1987). A fructosamine assay kit is available from Isolab Inc., Akron, Ohio 44321.
In particular, the serum samples were centrifuged to remove lipids. The clarified serum samples were treated with a reagent to remove ascorbic acid and other interfering substances. The treated Serum samples were then incubated for a fixed period of time, with the fructosamine-bicarbonate reagent (tetrazolium salt), and absorbance was measured at a wavelength of 500 nm in a spectrophotometer. The data was analyzed statistically.

serum protein = test: Glycosylated serum proteins in diabetic rats (Example IV, FIG. 5); assay type: in vivo, Sprague-Dawley rat; conditions: 5 mg daily oral gavage, 21 days; effect p<0.05
From the text: (Control vs. Diabetic p<0.01, Diabetic vs. Diabetic treated with Doxycycline p<0.05, Diabetic vs. Diabetic treated with CMT-1 (4-dedimethyiaminotetracycline) p<0.05).
(§2) Sixteen adult male sprague-Dawley rats, each weighing approximately 350 grams, were divided into four groups 0f four animals per group.

skin collagen [3] = test: Glycosylation of skin collagen in diabetic rats, anthrone method (Example IV, FIG. 6); assay type: in vivo, Sprague-Dawley rat; conditions: 5 mg daily oral gavage, 21 days; effect p<0.05
Protocol: as §2
In addition, the entire skin was dissected from each rat. Samples containing 100mg of each skin were suspended in a Tris-HCl buffer containing 5mM CaCl2 and chromatographically-purified bacterial collagenase and incubated at 37° C. for 4 hours. Following incubation all samples were centrifugated at 35,000×G and the supernatants containing the skin collagen fragments were collected. The skin digest supernatants were analyzed for (1) carbohydrate-attached-to-collagen by the anthrone method, as described by Halhoul and Kleinberg ([…]) Anal. Biochem. 50: 337-343 and (2) total protein using the BioRad Assay, BioRad Chemical Division, Richmond, Calif.

collagenase [4] = test: Collagenase activity in skin of diabetic rats (Example V, FIG. 8); assay type: in vivo, Sprague-Dawley rat; conditions: 5 mg daily oral gavage, 21 days; p<0.001 for normalization
Protocol: as §1
In particular, all dissection and extraction procedures were carried out at 4° C. unless otherwise indicated. For MMP analysis, the tissues were minced, weighed, extracted, and the extracts partially purified by ammonium sulfate precipitation using techniques described previously (Ramamurthy and Golub, J. Periodontal Res. 17, 455, (1983)). The extracts of the diseased tissue were then concentrated 5-fold and aliquots were incubated (a) with [^3 H-methyl] gelatin (denatured type I rat skin collagen ) at 37° C. for 4hours to measure gelatinase activity. The undigested gelatin was precipitated with trichloroacetic acid, and after centrifugation, aliquots of the degradation products in the supernatants were measured in a liquid scintillation spectrometer (in addition to this lysis assay, the different molecular forms of gelatinase were assessed by zymography); (b) with [^3 H-methyl] collagen for 18 hours at 27° C. and the collagen degradation fragments in the supernatants were analyzed with a liquid scintillation spectrometer to measure collagenase activity. In addition, the radiolabeled collagen components (α chains) and degradation fragments (α^A) were assessed by a combination of SDS-polyacrylamide gel electrophoresis and fluorography as described previously (Golub et al. J. Periodontal Res. 20, 12 (1985).

gelatinase = test: Gelatinase activity in skin of diabetic rats (Example V, FIG. 9); assay type: in vivo, Sprague-Dawley rat; conditions: 5 mg daily oral gavage, 21 days; p<0.001 for normalization
Protocol: as §1
In particular, all dissection and extraction procedures were carried out at 4° C. unless otherwise indicated. […] The extracts of the diseased tissue were then concentrated 5-fold and aliquots were incubated (a) with [^3 H-methyl] gelatin (denatured type I rat skin collagen ) at 37° C. for 4hours to measure gelatinase activity. The undigested gelatin was precipitated with trichloroacetic acid, and after centrifugation, aliquots of the degradation products in the supernatants were measured in a liquid scintillation spectrometer (in addition to this lysis assay, the different molecular forms of gelatinase were assessed by zymography); (b) with [^3 H-methyl] collagen for 18 hours at 27° C. and the collagen degradation fragments in the supernatants were analyzed with a liquid scintillation spectrometer to measure collagenase activity.

diabetic rats = conditions: Golub et al. 1990; cited from earlier work
[5] = test system: streptozotocin-diabetic rats; test: Proteinuria: urine protein excretion in diabetic rats (Example III, FIG. 4); assay type: in vivo, rat; conditions: 4 weeks
Protocol: Example III was carried out to determine the effect of tetracycline therapy on proteinuria, a parameter of renal damage, in diabetic rats.
(§3) Streptozotocin-diabetic rats were treated by the daily oral administration of 20 mg minocycline/rat/day over a 4-week period. At the end of the protocol, 24-hour urines were collected to measure protein excretion.

[6] = test system: streptozotocin-diabetic rats; test: Other signs of diabetes (hyperglycemia, glucosuria, polyuria) in diabetic rats (Example III); assay type: in vivo, rat
Protocol: as §3

[7] = White, Lancet 1989; cited from earlier work
collagen = conditions: diabetes in rats; Brownlee et al. 1986; cited from earlier work
[8] = Wong et al. 1984, cited from earlier work
collagenase [9] = conditions: in vitro (Golub, et al., 1991) and in vivo; cited from earlier work
serum proteins [10] = test: Glycosylated serum protein (GSP) in diabetic rats (Example V, FIG. 7); conditions: 5 mg daily oral gavage, 21 days; vs untreated diabetics, p<0.005
Protocol: Fifty-two adult male Sprague-Dawley rats were divided into eight groups, each consisting of 5-7 animals. Diabetes was induced by I.V. administration of streptozotocin in all rats, except the non-diabetic control group (7 rats). […] All animals were weighed weekly. Following general anesthesia by halothane inhalation, blood samples were collected by cardiac puncture. Blood samples were analyzed for serum glucose and glycosylated serum protein (GSP) levels. As previously mentioned, glycosylated serum protein levels were measured using the Isolab Glyco-PROBE™ GSP (glycosylated serum protein) assay kit.

NC(=O)C1=C(O)C2(O)C(=O)C3=C(O)c4c(O)cccc4CC3CC2CC1=O (stereo not drawn) [CMT-3, 6-demethyl-6-deoxy-4-dedimethylaminotetracycline]
mM Fructosamine/mg protein (Mean ± SE) (skin collagen [1]): 0.186 ± 0.048 mM Fructosamine/mg protein | Reduction of glycosylation in treated diabetics (%) (skin collagen [1]): 50.7%

CC1(O)c2c(Cl)ccc(O)c2C(=O)C2=C(O)C3(O)C(=O)C(C(N)=O)=C(O)CC3CC21 (stereo not drawn) [CMT-4, 7-chloro-4-dedimethylaminotetracycline]
mM Fructosamine/mg protein (Mean ± SE) (skin collagen [1]): 0.236 ± 0.026 mM Fructosamine/mg protein | Reduction of glycosylation in treated diabetics (%) (skin collagen [1]): 37.4%

CC1(O)c2cccc(O)c2C(O)=C2C(=O)C3C(O)=C(C(N)=O)C(=O)CC3CC21 (stereo not drawn) [CMT-7, 12a-deoxy-4-deoxy-4-dedimethylaminotetracycline]
mM Fructosamine/mg protein (Mean ± SE) (skin collagen [1]): 0.141 ± 0.086 mM Fructosamine/mg protein | Reduction of glycosylation in treated diabetics (%) (skin collagen [1]): 62.6%

C[C@H]1c2cccc(O)c2C(O)=C2C(=O)[C@]3(O)C(O)=C(C(N)=O)C(=O)C[C@@H]3[C@@H](O)[C@@H]21 [CMT-8, 6α-deoxy-5-hydroxy-4-dedimethylaminodoxycycline]
mM Fructosamine/mg protein (Mean ± SE) (skin collagen [1]): 0.118 ± 0.090 mM Fructosamine/mg protein | Reduction of glycosylation in treated diabetics (%) (skin collagen [1]): 68.7%

C[C@H]1c2cccc(O)c2C(O)=C2C(=O)[C@]3(O)C(O)=C(C(N)=O)C(=O)[C@@H](N(C)C)[C@@H]3[C@@H](O)[C@@H]21 [Doxycycline, reference compound]
Serum Fructosamine Concentration (serum proteins [2]; mean ± standard error, non-diabetic 1.33, untreated diabetics 3.82): 3.23 ± 0.20 | fructosamine levels in the serum proteins (serum proteins [2]; vs untreated diabetics, p<0.05): significantly (p<0.05) reduced | fructosamine attached to serum protein (glycosylated serum protein) (serum protein): returned both of these parameters of abnormal glycosylation to essentially normal levels | glycosylation of skin collagen (skin collagen [3]): returned both of these parameters of abnormal glycosylation to essentially normal levels | mM Fructosamine/mg protein (Mean ± SE) (skin collagen [1]): 0.244 ± 0.050 mM Fructosamine/mg protein | Reduction of glycosylation in treated diabetics (%) (skin collagen [1]): 35.3% | collagenase activity in the skin (collagenase [4]): normalized | gelatinase activity in the skin (gelatinase): normalized | severity of hyperglycemia (diabetic rats): does not reduce the severity of hyperglycemia in diabetic rats

CN(C)c1ccc(O)c2c1C[C@H]1C[C@H]3[C@H](N(C)C)C(O)=C(C(N)=O)C(=O)[C@@]3(O)C(O)=C1C2=O [Minocycline]
urine protein excretion ([5]; 20 mg minocycline/rat/day oral, normal 48, untreated diabetics 280): 52 mg/24 hr | development of proteinuria ([5]; 20 mg/rat/day oral): completely prevented the development of proteinuria | other signs of diabetes including hyperglycemia, glucosuria and polyuria [6]: Neither treatment with minocycline nor CMT-1 reduced the other signs of diabetes | effectiveness in dystrophic epidermolysis bullosa [7]: effective in treating dystrophic epidermolysis bullosa

N=C(N)NN [aminoguanidine]
inhibition of nonenzymatic glucose-derived collagen crosslinking (collagen): effective inhibitor

CC(C)Cc1ccc(C(C)C(=O)O)cc1 (stereo not drawn) [ibuprofen]
reduction of resulting inflammation in acne vulgaris ([8]; combination study with tetracycline): useful in reducing the resulting inflammation

CN(C)C1C(=O)C(C(N)=O)=C(O)C2(O)C(=O)C3=C(O)c4c(O)cccc4C(C)(O)C3CC12 (stereo not drawn) [tetracycline]
effectiveness against acne vulgaris ([8]; combination study with ibuprofen): effective agent against acne vulgaris

tetracycline pyrazole [CMT-5]
mM Fructosamine/mg protein (Mean ± SE) (skin collagen [1]): 0.121 ± 0.050 mM Fructosamine/mg protein | Reduction of glycosylation in treated diabetics (%) (skin collagen [1]): 69.9% | collagenase activity in the skin (collagenase [4]): normalized by all treatment groups (p<0.001) with the exception of CMT 5 | gelatinase activity in the skin (gelatinase): normalized by all treatment groups (p<0.001) with the exception of CMT 5 | anticollagenase properties (collagenase [9]): lost its anticollagenase properties | GSP levels (serum proteins [10]): substantially lower
